Assay results reported in ChEMBL document CHEMBL1909046, “DrugMatrix in vitro pharmacology data”.

biological target: Mitogen-activated protein kinase 3 (Homo sapiens, UniProt P27361); assay: DRUGMATRIX: Protein Serine/Threonine Kinase, ERK1 enzyme inhibition (substrate: Myelin Basic Protein); parameters: species or system Escherichia coli; conditions: Not Active = under 50% inhibition at 10 µM
Sequence (P27361 whole entry): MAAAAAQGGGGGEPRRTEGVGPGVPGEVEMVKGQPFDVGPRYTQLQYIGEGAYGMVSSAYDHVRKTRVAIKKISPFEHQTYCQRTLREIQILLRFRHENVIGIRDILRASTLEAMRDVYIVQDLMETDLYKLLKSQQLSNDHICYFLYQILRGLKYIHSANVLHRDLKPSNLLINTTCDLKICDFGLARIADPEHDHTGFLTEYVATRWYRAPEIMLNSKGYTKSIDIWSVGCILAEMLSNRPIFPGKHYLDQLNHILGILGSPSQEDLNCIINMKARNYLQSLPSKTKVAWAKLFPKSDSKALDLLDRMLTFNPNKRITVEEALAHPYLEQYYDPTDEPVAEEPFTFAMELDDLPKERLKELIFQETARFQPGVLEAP

Compound | IC50
Nc1nc(Cl)nc2c1ncn2[C@H]1C[C@H](O)[C@@H](CO)O1 [CLADRIBINE] | Not Active
CC(=O)O[C@]1(C(C)=O)CC[C@H]2[C@@H]3C=C(Cl)C4=CC(=O)[C@@H]5C[C@@H]5[C@]4(C)[C@H]3CC[C@@]21C [CYPROTERONE ACETATE] | Not Active
Nc1nc(N)nc(NC2CC2)n1 [CYROMAZINE] | Not Active
C#C[C@]1(O)CC[C@H]2[C@@H]3CCC4=Cc5oncc5C[C@]4(C)[C@H]3CC[C@@]21C [DANAZOL] | Not Active
CN1C(=O)CN=C(c2ccccc2)c2cc(Cl)ccc21 [DIAZEPAM] | Not Active
C#C[C@]1(O)CC[C@H]2[C@@H]3CCc4cc(O)ccc4[C@H]3CC[C@@]21C [ETHINYL ESTRADIOL] | Not Active
COc1ccccc1OCC(O)CO (centres undefined) [GUAIFENESIN] | Not Active
CNC(=C[N+](=O)[O-])NCCSCc1csc(CN(C)C)n1 [NIZATIDINE] | Not Active
COc1ccc(Cc2nccc3cc(OC)c(OC)cc23)cc1OC [PAPAVERINE] | Not Active
CC(C)(Sc1cc(C(C)(C)C)c(O)c(C(C)(C)C)c1)Sc1cc(C(C)(C)C)c(O)c(C(C)(C)C)c1 [PROBUCOL] | Not Active

biological target: Nitric oxide synthase 1 (Rattus norvegicus, UniProt P29476); type: tissue-based, Cerebellum; conditions: not given; further: in other assays of this panel Not Active means under 50% inhibition at 10 µM
Sequence (P29476 whole entry): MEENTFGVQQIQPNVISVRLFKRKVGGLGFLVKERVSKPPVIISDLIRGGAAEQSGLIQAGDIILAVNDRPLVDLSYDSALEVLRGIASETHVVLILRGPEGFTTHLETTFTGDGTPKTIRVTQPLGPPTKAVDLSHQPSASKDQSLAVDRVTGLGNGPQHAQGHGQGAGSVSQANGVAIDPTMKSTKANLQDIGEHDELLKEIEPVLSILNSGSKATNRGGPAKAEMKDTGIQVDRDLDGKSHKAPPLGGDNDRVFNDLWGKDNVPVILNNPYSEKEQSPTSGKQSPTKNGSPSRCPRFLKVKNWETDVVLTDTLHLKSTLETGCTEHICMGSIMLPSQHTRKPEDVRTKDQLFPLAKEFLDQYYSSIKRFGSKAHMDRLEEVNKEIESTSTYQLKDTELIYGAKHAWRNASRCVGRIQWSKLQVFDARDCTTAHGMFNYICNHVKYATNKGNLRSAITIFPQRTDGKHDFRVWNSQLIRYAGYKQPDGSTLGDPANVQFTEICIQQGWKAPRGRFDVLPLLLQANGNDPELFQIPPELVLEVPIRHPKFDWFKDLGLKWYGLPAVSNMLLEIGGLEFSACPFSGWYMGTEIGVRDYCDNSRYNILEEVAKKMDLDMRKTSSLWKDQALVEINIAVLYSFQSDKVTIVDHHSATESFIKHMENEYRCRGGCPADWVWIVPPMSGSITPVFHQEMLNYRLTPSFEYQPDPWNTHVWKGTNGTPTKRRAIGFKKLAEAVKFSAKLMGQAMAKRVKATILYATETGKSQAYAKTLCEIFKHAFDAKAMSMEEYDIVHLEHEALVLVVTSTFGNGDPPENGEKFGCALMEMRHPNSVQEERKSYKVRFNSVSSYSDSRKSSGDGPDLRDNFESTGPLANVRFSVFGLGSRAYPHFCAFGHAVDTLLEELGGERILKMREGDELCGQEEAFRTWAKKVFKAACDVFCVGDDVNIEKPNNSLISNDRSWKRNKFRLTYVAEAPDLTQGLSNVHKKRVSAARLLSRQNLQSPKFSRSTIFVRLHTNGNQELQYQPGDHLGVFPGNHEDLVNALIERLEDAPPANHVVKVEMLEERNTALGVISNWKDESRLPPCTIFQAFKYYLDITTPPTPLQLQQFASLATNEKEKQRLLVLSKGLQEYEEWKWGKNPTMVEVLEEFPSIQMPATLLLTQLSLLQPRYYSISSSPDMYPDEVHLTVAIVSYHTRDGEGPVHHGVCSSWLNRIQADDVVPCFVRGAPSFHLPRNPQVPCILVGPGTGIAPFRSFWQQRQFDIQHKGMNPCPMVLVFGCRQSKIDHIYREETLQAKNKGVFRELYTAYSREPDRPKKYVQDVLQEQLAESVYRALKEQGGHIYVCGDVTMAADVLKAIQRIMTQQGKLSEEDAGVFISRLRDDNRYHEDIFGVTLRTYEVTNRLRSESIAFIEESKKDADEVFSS

Compound | IC50
Nc1nc(Cl)nc2c1ncn2[C@H]1C[C@H](O)[C@@H](CO)O1 [CLADRIBINE] | Not Active
CC(=O)O[C@]1(C(C)=O)CC[C@H]2[C@@H]3C=C(Cl)C4=CC(=O)[C@@H]5C[C@@H]5[C@]4(C)[C@H]3CC[C@@]21C [CYPROTERONE ACETATE] | Not Active
Nc1nc(N)nc(NC2CC2)n1 [CYROMAZINE] | Not Active
C#C[C@]1(O)CC[C@H]2[C@@H]3CCC4=Cc5oncc5C[C@]4(C)[C@H]3CC[C@@]21C [DANAZOL] | Not Active
CN1C(=O)CN=C(c2ccccc2)c2cc(Cl)ccc21 [DIAZEPAM] | Not Active
Cc1c(N(C)CS(=O)(=O)[O-])c(=O)n(-c2ccccc2)n1C.[Na+] [DIPYRONE SODIUM] | Not Active
C#C[C@]1(O)CC[C@H]2[C@@H]3CCc4cc(O)ccc4[C@H]3CC[C@@]21C [ETHINYL ESTRADIOL] | Not Active
COc1ccccc1OCC(O)CO (centres undefined) [GUAIFENESIN] | Not Active
CNC(=C[N+](=O)[O-])NCCSCc1csc(CN(C)C)n1 [NIZATIDINE] | Not Active
COc1ccc(Cc2nccc3cc(OC)c(OC)cc23)cc1OC [PAPAVERINE] | Not Active
CC(C)(Sc1cc(C(C)(C)C)c(O)c(C(C)(C)C)c1)Sc1cc(C(C)(C)C)c(O)c(C(C)(C)C)c1 [PROBUCOL] | Not Active

biological target: Cytochrome P450 2C19 (Homo sapiens, UniProt P33261); conditions: bti-tn-5b1-4; further: in other assays of this panel Not Active means under 50% inhibition at 10 µM
Sequence (P33261 whole entry): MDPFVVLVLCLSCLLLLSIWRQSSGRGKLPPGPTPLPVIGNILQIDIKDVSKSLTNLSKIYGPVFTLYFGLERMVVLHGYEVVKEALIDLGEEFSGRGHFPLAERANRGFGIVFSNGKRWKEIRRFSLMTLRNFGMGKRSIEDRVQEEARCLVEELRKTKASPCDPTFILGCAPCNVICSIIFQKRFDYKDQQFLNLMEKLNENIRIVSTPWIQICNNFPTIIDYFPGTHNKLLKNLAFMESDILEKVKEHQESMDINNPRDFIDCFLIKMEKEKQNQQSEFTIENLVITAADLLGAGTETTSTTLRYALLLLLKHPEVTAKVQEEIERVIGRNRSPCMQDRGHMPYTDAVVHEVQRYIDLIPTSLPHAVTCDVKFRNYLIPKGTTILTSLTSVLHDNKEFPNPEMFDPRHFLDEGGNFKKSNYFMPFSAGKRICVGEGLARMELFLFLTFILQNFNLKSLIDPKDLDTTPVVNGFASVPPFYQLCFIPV

Compound | IC50 | Ki
Nc1nc(Cl)nc2c1ncn2[C@H]1C[C@H](O)[C@@H](CO)O1 [CLADRIBINE] | Not Active | Not Active
CC(=O)O[C@]1(C(C)=O)CC[C@H]2[C@@H]3C=C(Cl)C4=CC(=O)[C@@H]5C[C@@H]5[C@]4(C)[C@H]3CC[C@@]21C [CYPROTERONE ACETATE] | Not Active | Not Active
Nc1nc(N)nc(NC2CC2)n1 [CYROMAZINE] | Not Active | Not Active
C#C[C@]1(O)CC[C@H]2[C@@H]3CCC4=Cc5oncc5C[C@]4(C)[C@H]3CC[C@@]21C [DANAZOL] | Not Active | Not Active
Cc1c(N(C)CS(=O)(=O)[O-])c(=O)n(-c2ccccc2)n1C.[Na+] [DIPYRONE SODIUM] | Not Active | Not Active
C#C[C@]1(O)CC[C@H]2[C@@H]3CCc4cc(O)ccc4[C@H]3CC[C@@]21C [ETHINYL ESTRADIOL] | Not Active | Not Active

tested on: not listed separately; assay: DRUGMATRIX: Calcium Channel Type L, Dihydropyridine radioligand binding (ligand: [3H] Nitrendipine); type: cell membranes, Rattus norvegicus, Wistar, Cerebral cortex, Membrane; conditions: Not Active = under 50% inhibition at 10 µM

Compound | IC50 | Ki
Nc1nc(Cl)nc2c1ncn2[C@H]1C[C@H](O)[C@@H](CO)O1 [CLADRIBINE] | Not Active | Not Active
CC(=O)O[C@]1(C(C)=O)CC[C@H]2[C@@H]3C=C(Cl)C4=CC(=O)[C@@H]5C[C@@H]5[C@]4(C)[C@H]3CC[C@@]21C [CYPROTERONE ACETATE] | Not Active | Not Active
Nc1nc(N)nc(NC2CC2)n1 [CYROMAZINE] | Not Active | Not Active
CN1C(=O)CN=C(c2ccccc2)c2cc(Cl)ccc21 [DIAZEPAM] | Not Active | Not Active
Cc1c(N(C)CS(=O)(=O)[O-])c(=O)n(-c2ccccc2)n1C.[Na+] [DIPYRONE SODIUM] | Not Active | Not Active
C#C[C@]1(O)CC[C@H]2[C@@H]3CCc4cc(O)ccc4[C@H]3CC[C@@]21C [ETHINYL ESTRADIOL] | Not Active | Not Active
COc1ccccc1OCC(O)CO (centres undefined) [GUAIFENESIN] | Not Active | Not Active
CNC(=C[N+](=O)[O-])NCCSCc1csc(CN(C)C)n1 [NIZATIDINE] | Not Active | Not Active
COc1ccc(Cc2nccc3cc(OC)c(OC)cc23)cc1OC [PAPAVERINE] | Not Active | Not Active
CC(C)(Sc1cc(C(C)(C)C)c(O)c(C(C)(C)C)c1)Sc1cc(C(C)(C)C)c(O)c(C(C)(C)C)c1 [PROBUCOL] | Not Active | Not Active

same assay, conditions: Not Active = under 50% inhibition at 10 µM; read-out: IC50

Compound | IC50
C#C[C@]1(O)CC[C@H]2[C@@H]3CCC4=Cc5oncc5C[C@]4(C)[C@H]3CC[C@@]21C [DANAZOL] | 19.6 µM

same assay, conditions: Not Active = under 50% inhibition at 10 µM; read-out: Ki

Compound | Ki
C#C[C@]1(O)CC[C@H]2[C@@H]3CCC4=Cc5oncc5C[C@]4(C)[C@H]3CC[C@@]21C [DANAZOL] | 12.6 µM

tested on: not listed separately; assay: DRUGMATRIX: Serotonin (5-Hydroxytryptamine) 5-HT3 radioligand binding (ligand: [3H] GR-65630); type: cell membranes, Membrane; conditions: hek293; Not Active = under 50% inhibition at 10 µM

Compound | IC50 | Ki
Nc1nc(Cl)nc2c1ncn2[C@H]1C[C@H](O)[C@@H](CO)O1 [CLADRIBINE] | Not Active | Not Active
CC(=O)O[C@]1(C(C)=O)CC[C@H]2[C@@H]3C=C(Cl)C4=CC(=O)[C@@H]5C[C@@H]5[C@]4(C)[C@H]3CC[C@@]21C [CYPROTERONE ACETATE] | Not Active | Not Active
Nc1nc(N)nc(NC2CC2)n1 [CYROMAZINE] | Not Active | Not Active
C#C[C@]1(O)CC[C@H]2[C@@H]3CCC4=Cc5oncc5C[C@]4(C)[C@H]3CC[C@@]21C [DANAZOL] | Not Active | Not Active
CN1C(=O)CN=C(c2ccccc2)c2cc(Cl)ccc21 [DIAZEPAM] | Not Active | Not Active
Cc1c(N(C)CS(=O)(=O)[O-])c(=O)n(-c2ccccc2)n1C.[Na+] [DIPYRONE SODIUM] | Not Active | Not Active
C#C[C@]1(O)CC[C@H]2[C@@H]3CCc4cc(O)ccc4[C@H]3CC[C@@]21C [ETHINYL ESTRADIOL] | Not Active | Not Active
COc1ccccc1OCC(O)CO (centres undefined) [GUAIFENESIN] | Not Active | Not Active
CNC(=C[N+](=O)[O-])NCCSCc1csc(CN(C)C)n1 [NIZATIDINE] | Not Active | Not Active
COc1ccc(Cc2nccc3cc(OC)c(OC)cc23)cc1OC [PAPAVERINE] | Not Active | Not Active
CC(C)(Sc1cc(C(C)(C)C)c(O)c(C(C)(C)C)c1)Sc1cc(C(C)(C)C)c(O)c(C(C)(C)C)c1 [PROBUCOL] | Not Active | Not Active

biological target: T1, Substance-K receptor (Homo sapiens, UniProt P21452); type: cell membranes, CHO, Membrane; conditions: cho; further: in other assays of this panel Not Active means under 50% inhibition at 10 µM
T1 sequence (P21452 whole entry): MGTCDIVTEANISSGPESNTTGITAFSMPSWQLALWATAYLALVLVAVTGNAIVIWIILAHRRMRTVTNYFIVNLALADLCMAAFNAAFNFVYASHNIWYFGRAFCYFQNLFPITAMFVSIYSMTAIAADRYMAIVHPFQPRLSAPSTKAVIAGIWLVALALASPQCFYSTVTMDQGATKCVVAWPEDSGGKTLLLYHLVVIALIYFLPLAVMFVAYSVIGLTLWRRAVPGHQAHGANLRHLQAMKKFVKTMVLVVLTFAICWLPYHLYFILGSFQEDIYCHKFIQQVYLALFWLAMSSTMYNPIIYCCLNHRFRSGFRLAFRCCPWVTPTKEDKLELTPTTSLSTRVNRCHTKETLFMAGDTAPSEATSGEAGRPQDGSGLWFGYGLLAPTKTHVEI

Compound | IC50
Nc1nc(Cl)nc2c1ncn2[C@H]1C[C@H](O)[C@@H](CO)O1 [CLADRIBINE] | Not Active
CC(=O)O[C@]1(C(C)=O)CC[C@H]2[C@@H]3C=C(Cl)C4=CC(=O)[C@@H]5C[C@@H]5[C@]4(C)[C@H]3CC[C@@]21C [CYPROTERONE ACETATE] | Not Active
Nc1nc(N)nc(NC2CC2)n1 [CYROMAZINE] | Not Active
CN1C(=O)CN=C(c2ccccc2)c2cc(Cl)ccc21 [DIAZEPAM] | Not Active
Cc1c(N(C)CS(=O)(=O)[O-])c(=O)n(-c2ccccc2)n1C.[Na+] [DIPYRONE SODIUM] | Not Active
C#C[C@]1(O)CC[C@H]2[C@@H]3CCc4cc(O)ccc4[C@H]3CC[C@@]21C [ETHINYL ESTRADIOL] | Not Active
COc1ccccc1OCC(O)CO (centres undefined) [GUAIFENESIN] | Not Active
CNC(=C[N+](=O)[O-])NCCSCc1csc(CN(C)C)n1 [NIZATIDINE] | Not Active
COc1ccc(Cc2nccc3cc(OC)c(OC)cc23)cc1OC [PAPAVERINE] | Not Active
CC(C)(Sc1cc(C(C)(C)C)c(O)c(C(C)(C)C)c1)Sc1cc(C(C)(C)C)c(O)c(C(C)(C)C)c1 [PROBUCOL] | Not Active

same assay, conditions: read-out: IC50

Compound | IC50
C#C[C@]1(O)CC[C@H]2[C@@H]3CCC4=Cc5oncc5C[C@]4(C)[C@H]3CC[C@@]21C [DANAZOL] | 26.6 µM

same assay, conditions: read-out: Ki

Compound | Ki
C#C[C@]1(O)CC[C@H]2[C@@H]3CCC4=Cc5oncc5C[C@]4(C)[C@H]3CC[C@@]21C [DANAZOL] | 8.86 µM
